This is an account of results in patent publication US9249306B2, “Quenched dendrimeric dyes for florescence detection” (Carnegie Mellon University, priority 2009, dated 2016).

The Kd is the constant that tells how readily two partners part at equilibrium. Read a high Kd as a looser complex.

The test system of data set [1] is L5-MG E52D. It counts as physicochemical, human. Particulars: bound to L5-MG E52D; for Relative quantum yield, 514 nm / Relative quantum yield, 532 nm / Relative quantum yield, 561 nm: normalized to 633 nm value; for Relative quantum yield, 633 nm: set to 1.00.
Data set [2] has as its system L5-MG E52D. It counts as physicochemical, human. Particulars: soluble dyedron/L5-MG E52D complex; 620 nm excitation. As to the method: Fluoromodules were assembled as above, and quantum yields based on the acceptor MG excitation band were determined as described using Cy5.18 as the calibration dye (Szent-Gyorgyi, C., et al., Nature Biotechnology 2008, 26, 235-240). Quantum yields determined with 620 nm excitation (Table 2) were essentially the same as unreported quantum yields determined with 590 nm excitation (<5% difference).

For data set [3], the system named is control strain JAR200 that does not express scFv. In words: Flow cytometry, control strain that does not express scFv. It counts as cell-based, Saccharomyces cerevisiae. The settings on record: 300 nM dyedron, 675/50 bandpass. The procedure: (§1) FIG. 15. Flow cytometric analysis of dyedron-labeled yeast by exciting donor (blue) or acceptor (red). Saccharomyces cerevisiae cells expressing L5-MG E52D on their surface were analyzed essentially as described in WO 08/092,041 and in Szent-Gyorgyi, C.; Schmidt, B. F.; Creeger, Y.; Fisher, G. W.; Zakel, K. L.; Adler, S.; Fitzpatrick, J. A. J.; Woolford, C. A.; Yan, Q.; Vasilev, K. V.; Berget, P. B.; Bruchez, M. P.; Jarvik, J. W.; Waggoner, A. Nature Biotechnology 2008, 26, 235-240. Two aliquots of each stained population and an unstained control (U) were respectively analyzed, exciting at 532 nm (donor) or 635 nm (acceptor), and collecting emission through a 675/50 nm bandpass (BP) filter. Each analysis comprised 100,000 cells. Stained samples contain a sub-population of non-fluorescent cells due to loss of scFv-encoding plasmid, whose signal corresponds to that of unstained samples (marked by thin lines). Controls show virtually no fluorescence generated by dyedrons on cell surfaces in the absence of expressed FAP (Table 3). Unstained cells excited at 532 nm are relatively brighter than those excited at 635 nm due to higher cellular autofluorescence at the shorter wavelength. Doublet stained peaks correspond to unbudded and budded yeast cells, and are typical for such experiments. Separation of the positive cells from negative cells remains essentially constant under 635 nm excitation but increases in proportion to the number of Cy3 donors under 532 nm excitation. The enhanced excitation in the dyedrons results in increased sensitivity in the flow cytometer.
In general terms: Flow cytometry measures light scatter and fluorescence of single cells or particles in a stream.

The test system of data set [4] is L5-MG E52D. Type of data set: physicochemical, human. Particulars: soluble dyedron/L5-MG E52D complex.
In data set [5] the target is L5-MG E52D. Type of data set: binding, human. The settings on record: yeast cell surface displayed L5-MG E52D; PBS+. As to the method:
Microplate fluorometry was carried out on a Tecan Safire2 microplate reader using 96 well microplates with 5×10^6 yeast cells/well.
Yeast JAR200 cells expressing L5-MG E52D were suspended at 10^7 cells/ml in modified PBS+ buffer in the presence of the indicated dyedron concentrations. Fluorescence was read on a Safire2 plate fluorimeter. KD values reported in Table 2 were determined using GraphPad Prism 4 software fits to the one site hyperbolic binding curves shown here. Under these conditions, KD values below 1 nM cannot be determined precisely. Plateau fluorescence levels correspond closely to the relative fluorescence signals seen in flow cytometric analyses using 635 nm laser excitation of the MG band (Table 3).

Data set [6] concerns yeast strain JAR200 expressing L5-MG E52D scFv on the cell surface. In words: Flow cytometric quantification of dyedron binding to yeast displayed L5-MG E52D. It counts as cell-based, Saccharomyces cerevisiae. The settings on record: for increase in specific brightness (factor), 532 nm vs 635 nm staining ratio / 532 laser median / 635 laser median / 532 laser mean / 635 laser mean: 300 nM dyedron; for increase in specific brightness (factor), 532 nm vs 635 nm staining ratio: live yeast; for 532 laser median / 635 laser median / 532 laser mean / 635 laser mean: 675/50 bandpass, JAR200 L5-MG E52D; for 532 laser mean / 635 laser mean: gated positive population; for FACS532/FACS635: median of stained population - median of unstained control. The procedure:
as §1

The nature of data set [7]: Donor array fluorescence of Cy3-labeled cystamine core PAMAM dendrimers. It counts as physicochemical. As to the method: To test the impact of high loading on donor array fluorescence, two cystamine core PAMAM dendrimers (Gen2-16 NH2 and Gen3-32 NH2) were labeled with an excess of monoreactive Cy3-NHS ester. After removal of excess dye by gel filtration the resulting macromolecules were analyzed by electrophoresis, and found to have low net mobility. Because each Cy3 molecule carries one net negative charge, a fully modified dendron should have a net charge of −2. […] However, these conjugates allow for the assessment of the potential risk of donor quenching.

Data set [8] concerns selected scFv. In words: Fluorescence activation of malachite green by selected scFv. The settings on record: in buffer. Type of data set: biochemical.
Experiment in data set [9]: not given
This is another data set of the same source.

Like-named read-outs stand apart in the source and are kept apart here. A value given as a limit tells only on which side of the number the result lay.

For `CC[N+]1=C(/C=C/C=C2/N(CCCCCC(=O)NCC(CNC(=O)CCCCCN3/C(=C/C=C/C4=[N+](CC)c5ccc(S(=O)(=O)O)cc5C4(C)C)C(C)(C)c4cc(S(=O)(=O)[O-])ccc43)OCC(=O)NCCCOc3ccc(C(=C4C=CC(=[N+](C)C)C=C4)c4ccc(N(C)C)cc4)cc3)c3ccc(S(=O)(=O)[O-])cc3C2(C)C)C(C)(C)c2cc(S(=O)(=O)[O-])ccc21` (centres unmarked) [BCM], in data set [1], the “Relative quantum yield, 514 nm” value was determined as 0.92; the “Relative quantum yield, 532 nm” value turned out to be 0.86; the “Relative quantum yield, 561 nm” value came to 1.31; the “Relative quantum yield, 633 nm” value was found to be 1.00. Further, the “φMG (quantum yield for MG excitation peak)” value (from here on “φMG”) in data set [2] is listed as 0.047. In [3], this compound showed a 532 laser mean of 113, a 532 laser median of 84, a 635 laser mean of 105 and a 635 laser median of 64. Moreover, in data set [4], the “εmax [M^−1cm^−1]” value is 290,000 M^−1cm^−1 and the “εmax [nm]” value was 551 nm. Moreover, the Kd in [5] is 4 nM. Also, in [6], the “increase in specific brightness (factor), 532 nm vs 635 nm staining ratio” value is on record as around 3; the 532 laser median is listed as 6912; the 635 laser median was determined as 2047; the 532 laser mean turned out to be 17894. In [6], this compound showed a 635 laser mean of 5521 and an FACS532/FACS635 of 3.27.

For the compound `CCN1/C(=C\C=C\C2=[N+](CCCCCC(=O)NCCNC(=O)CCCOc3ccc(C(=C4C=CC(=[N+](C)C)C=C4)c4ccc(N(C)C)cc4)cc3)c3ccc(S(=O)(=O)[O-])cc3C2(C)C)C(C)(C)c2cc(S(=O)(=O)[O-])ccc21` [CM, 1-{6-[(2-{[4-(4-{[4-(dimethylamino)phenyl][4-(dimethyliminio)cyclohexa-2,5-dien-1-ylidene]methyl}phenoxy)butanoyl]amino}ethyl)amino]-6-oxohexyl}-2-[(1E,3Z)-3-(1-ethyl-3,3-dimethyl-5-sulfonato-1,3-dihydro-2H-indol-2-ylidene)prop-1-en-1-yl]-3,3-dimethyl-3H-indolium-5-sulfonate], in [1], the “Relative quantum yield, 514 nm” value is 1.24; the “Relative quantum yield, 532 nm” value came out at 1.08; the “Relative quantum yield, 561 nm” value amounted to 1.41; the “Relative quantum yield, 633 nm” value stood at 1.00. The “φMG” value in data set [2] came to 0.057. Besides, in data set [3], the 532 laser mean is listed as 123, the 532 laser median was 95, the 635 laser mean turned out to be 108 and the 635 laser median was found to be 65. In [4], the “εmax [M^−1cm^−1]” value was 140,000 M^−1cm^−1 and the “εmax [nm]” value stood at 552 nm. This compound gave a Kd in [5] below 1 nM. In addition, in data set [6], the “increase in specific brightness (factor), 532 nm vs 635 nm staining ratio” value is recorded as “about 2”; the 532 laser median was determined as 6170; the 635 laser median came out at 2793; the 532 laser mean was 15946. In [6], the 635 laser mean is 7455 and the FACS532/FACS635 is listed as 2.17.

With `CCN1/C(=C\C=C\C2=[N+](CCCCCC(=O)O)c3ccc(S(=O)(=O)O)cc3C2(C)C)C(C)(C)c2cc(S(=O)(=O)[O-])ccc21` [Cy3], in data set [7], the “Estimated Diam. (nm)” value is 1.5 nm.

On to `CN(C)c1ccc(C(=C2C=CC(=[N+](C)C)C=C2)c2ccc(OCCCC(=O)NCCNC(=O)CCC(=O)NCCOCCOCCN)cc2)cc1` [M, malachite green diethyleneglycolamine], for which, in data set [1], the “Relative quantum yield, 561 nm” value amounted to 1.44 and the “Relative quantum yield, 633 nm” value was 1.00. Also, the “φMG” value in data set [2] was 0.055. In data set [3], this compound had a 532 laser mean of 111, a 532 laser median of 76, a 635 laser mean of 118 and a 635 laser median of 74. The extinction coefficient (PBS+) is recorded as 50,700 M^−1cm^−1. The extinction coefficient (ethanol/5% HAc) was 91,500 M^−1cm^−1. For the same compound, in data set [4], the “εmax [M^−1cm^−1]” value was 79,000 M^−1cm^−1 and the “εmax [nm]” value worked out at 642 nm. The compound further came in with a Kd in [5] below 1 nM. In [6], this compound had a 532 laser median of 335, a 635 laser median of 2635, a 532 laser mean of 435 and a 635 laser mean of 7089. Besides, in [6], the FACS532/FACS635 is 0.07.

As for `CN(C)c1ccc(C(=C2C=CC(=[N+](C)C)C=C2)c2ccccc2)cc1` [Malachite green], the “activation to fluorescent state (fold)” value in data set [8] is recorded as > 15,000 fold.

Regarding `CN(C)c1ccc(C(C#Cc2ccc(N(C)CCOCCCC(=O)O)cc2)=C2C=CC(=[N+](C)C)C=C2)cc1.[Cl-]` [acetylenic derivative of malachite green], the “quantum yield in water” value in [9] is on record as at most 0.003.
